# Data: patent US9051592B2, “Methods of ganglioside production” (Garnet BioTherapeutics, Inc., priority 2012, dated 2015)
# Where two headings read alike, the source gives them in different places.
# What was measured:
# [1] = system: PC12 (rat adrenal medulla tumor) cells; conditions: Yuyama et al., FEBS Lett. 580:6972-6976 (2006); cited from earlier work
# [2] = system: human bone marrow-derived cells (HBM); experiment: GM1 up-regulation, CTB-HRP normalized to Alamar Blue (Example 3, FIG. 3); format: cell-based
# [3] = system: Human bone marrow cells (HBM); conditions: HBM 20,000 cells/well, serum-free medium 72 H, chloroquine 48 H
# [4] = system: Affected sheep bone marrow cells (SBM)
# [5] = system: SHSY-5Y, SHSY-S, SK-N-AS, CHO-K1 and HEK293 cells; format: cell-based
# [6] = system: GBT-ABMSC, Lonza BMSC, Lonza ADSC, dermal fibroblast and GM1 fb cells; format: cell-based, Human
# SHSY-5Y = format: cell-based, human
# HEK293 = format: cell-based, Human
# [7] = system: HT22 (mouse hippocampal) cells; conditions: Hirata et al., J. Neurochem. 119:839-847 (2011); cited from earlier work
# GM1 fibroblast = format: cell-based, Human
# [8] = system: Affected sheep bone marrow cells (SBM); experiment: GM1 induction in affected sheep bone marrow cells by different treatments, CTB-Alexa 488 staining (Table 2); conditions: affected SBM 20,000 cells/well, 72 H (Poly-L-Lysine coated coverslips 6 Days)
# [9] = system: Adult Human Bone Marrow Cells
# CHO-K1 = format: cell-based, Chinese Hamster
# SHSY-S = format: cell-based
# SK-N-AS = format: cell-based
# GBT-ABMSC = format: cell-based, Human
# Lonza BMSC = experiment: GM1 induction by CLQ treatment, CTB-Alexa488 staining (Table 4); format: cell-based, Human; conditions: Lonza MSC basal medium + growth supplements, 10,000 per well, CLQ 48-120 hours
# Procedure: Human bone marrow-derived stromal cells, adipose-derived stromal cells, dermal fibroblasts, and fibroblasts from subjects diagnosed with GM1 gangliosidosis, as well as immortalized neuroblastoma cells (SHSY-5Y, SHSY-S and SK-N-AS), Chinese Hamster Ovary cells (CHO-K1), and Human Embryonic Kidney cells (HEK293) were purchased from commercial sources. Cells were cultured on 24 well plates in standard culture medium, at a density of 2000-20,000 cells/well overnight and either maintained in standard culture medium (CONTROL) or treated with chloroquine (CLQ) according to the conditions listed in Table 4 below. Cells were maintained in a tissue culture incubator at approximately 37° C. in a humidified atmosphere comprising approximately 5% CO2 and approximately 21% O2 balanced with N2. After treatment for 48-120 hours, the cells were fixed with 4% paraformaldehyde and stained with CTB-Alexa488 to detect GM1 ganglioside. Extensive GM1 accumulation is evident in most cells types compared to controls maintained in standard culture media alone. (FIGS. 10 and 11 and Table 4).
# Dermal fibroblast = format: cell-based, Human
# ADSC = format: cell-based, Human
# [10] = pretreatment; background statement; cited from earlier work
# [11] = system: Parkinson's disease subjects; conditions: five-year study; Schneider et al., J. Neurol. Sci. 292:45-51 (2010); cited from earlier work
# [12] = system: central nervous system lesions in experimental animals; conditions: background statement; cited from earlier work
# [13] = system: Parkinson's disease subjects; conditions: short-term treatment; Schneider et al., Neurology 50:1630-1636 (1998); cited from earlier work
compound,measurement,setting,value
"CCN(CC)CCCC(C)Nc1ccnc2cc(Cl)ccc12 (centres unmarked) [Chloroquine, chloroquine]",accumulation in PC12 cells,[1],induce accumulation
same,up-regulation of GM1 expression (CTB-HRP normalized to Alamar Blue) versus control,[2],approximately 8 fold
same,Degree of GM1 Staining,[3],+++++
same,Degree of GM1 Staining,[3]; listed as CLQ,most intense staining
same,Degree of Cell Death,[4],+
same,"GM1 signal (CTB-Alexa488) compared to control conditions, FIG. 10",[5],more abundant and intense compared to control conditions for all cell types
same,"GM1 signal (CTB-Alexa488) compared to control conditions, FIG. 11",[6],more abundant and intense compared to control conditions for all cell types
same,% Increase in Degree of Staining with induction,SHSY-5Y,104%
same,% Increase in Degree of Staining with induction,HEK293,15%
same,GM1 levels in HT22 cells,[7],only moderately increased GM1 levels
same,% Increase in Degree of Staining with induction,GM1 fibroblast,28%
same,Cell Death,SHSY-5Y cells,+
same,Degree of GM1 Staining,[8]; listed as CLQ,"also induced GM1, but not as much as CLQ/NIM"
same,Cell Death,[9],10-20%
same,% Increase in Degree of Staining with induction,CHO-K1,83%
same,% Increase in Degree of Staining with induction,SHSY-S,19%
same,% Increase in Degree of Staining with induction,SK-N-AS,19%
same,% Increase in Degree of Staining with induction,GBT-ABMSC,65%
same,% Increase in Degree of Staining with induction,Lonza BMSC,119%
same,% Increase in Degree of Staining with induction,Dermal fibroblast,63%
same,% Increase in Degree of Staining with induction,ADSC,28%
"O=C[C@H](O)[C@@H](O)[C@@H](O)[C@H](O)CO [Switch from No glucose to galactose, galactose]",Cell Death,SHSY-5Y cells,−
CCCCCCCCCCCCC/C=C/[C@@H](O)[C@H](CO[C@@H]1O[C@H](CO)[C@@H](O[C@@H]2O[C@H](CO)[C@H](O[C@@H]3O[C@H](CO)[C@H](O)[C@H](O[C@@H]4O[C@H](CO)[C@H](O)[C@H](O)[C@H]4O)[C@H]3NC(C)=O)[C@H](O[C@]3(C(=O)O)C[C@@](O)(CO)[C@@H](NC(C)=O)[C@H]([C@H](O)CO)O3)[C@H]2O)[C@H](O)[C@H]1O)NC(=O)CCCCCCCCCCCCCCCCC [GM1],damage resulting from neurotoxin exposures,[10],inhibits damage
same,clinical benefit of long-term use,[11],may provide some clinical benefit
same,safety of long-term use,[11],safe
same,recovery from central nervous system lesions,[12],significant biochemical and behavioral recovery
same,symptom reduction,[13],significant symptom reduction
PDGF,Degree of Cell Death,[4],−
"N[C@H]1C(O)O[C@H](CO)[C@@H](O)[C@@H]1O (some centres unmarked) [Glucosamine, glucosamine]",Degree of GM1 Staining,[8],"also induced GM1, but to a lesser degree"
